As a reminder, the IC50 is the concentration at which inhibition is half-maximal.

The species entered for one test is Rattus norvegicus. Kind of test: Dose-dependent inhibition of calcium contraction in depolarized rat aortic strips. The following applies: Aorta. Type of test: functional, organism-based.
Take `CCOC(=O)[C@H]1[C@H]2/C(=C(\O)OCC)C(C)=N[C@]1(C)Sc1cc([N+](=O)[O-])ccc12`: the IC50 was more than 100 µM.

The species entered for another test is Rattus norvegicus. Briefly: Dose-dependent inhibition of calcium contraction in depolarized rat aortic strips. It counts as functional, organism-based. The following applies: Aorta.
Turning to `CCOC(=O)[C@H]1[C@H]2/C(=C(\O)OCC)C(C)=N[C@]1(C)Sc1c2cccc1[N+](=O)[O-]`, the IC50 came out at 23000 nM.

Regarding `CCOC(=O)C1=C(C)N=C(C)/C(=C(/O)OCC)C1c1cccc([N+](=O)[O-])c1SC` (configuration not stated), the IC50 stood at 5.8 nM.

As to `CCOC(=O)[C@@H]1[C@H]2/C(=C(\O)OCC)C(C)=N[C@]1(C)Sc1ccccc12`, the IC50 was found to be 1200 nM.

`CCOC(=O)C1=C(C)N=C(C)/C(=C(/O)OCC)C1c1cc([N+](=O)[O-])ccc1SC` (configuration not stated): the IC50 was found to be 130 nM.

Turning to `COC(=O)C1=C(C)NC(C)=C(C(=O)OC)C1c1ccccc1[N+](=O)[O-]` [NIFEDIPINE], the IC50 worked out at 8.8 nM.

As for `CCOC(=O)[C@@H]1[C@H]2/C(=C(\O)OCC)C(C)=N[C@]1(C)Sc1c2cccc1[N+](=O)[O-]`, the IC50 was 3700 nM.

`CCOC(=O)[C@@H]1[C@H]2/C(=C(\O)OCC)C(C)=N[C@]1(C)Sc1cc([N+](=O)[O-])ccc12`: the IC50 was determined as 14000 nM.

In the case of `CCOC(=O)[C@H]1[C@H]2/C(=C(\O)OCC)C(C)=N[C@]1(C)Sc1ccccc12`, the IC50 was 22000 nM.

For `CCOC(=O)[C@@H]1[C@H]2/C(=C(\O)OCC)C(C)=N[C@]1(C)Sc1ccc([N+](=O)[O-])cc12`, the IC50 came out at 31 nM.

As to `CCOC(=O)[C@H]1[C@H]2/C(=C(\O)OCC)C(C)=N[C@]1(C)Sc1ccc([N+](=O)[O-])cc12`, the IC50 stood at 3400 nM.

With `CCOC(=O)C1=C(C)NC(C)=C(C(=O)OC)C1c1cccc([N+](=O)[O-])c1` (configuration not stated) [NITRENDIPINE], the half-inhibitory concentration (IC50) came to 3.1 nM.

The record behind these values is ChEMBL document CHEMBL1123720 (J Med Chem, 1987).
